≈ marks a conversion by molar mass, not a printed value.
Columns and labels:
Kinetic solubility test = format: physicochemical; settings: buffer, 22 °C, aqueous buffer, kinetic from dmso stock, pH 2.0, room temperature
Method: 1. […] The test compound and the control compound (10 mM DMSO mother liquor, 10 uL per well) were added to a 96-well plate containing 490 uL of buffer per well. After vortexing for 2 minutes, the plates were incubated on the shaker at room temperature (22±2° C.) for 24 hours. The 200 uL sample was then transferred to a MultiScreen filter plate (polycarbonate film), filtered through a millipore vacuum manifold, and the filtrate was collected. The concentration of the compound in the filtrate was determined by HPLC-UV. Three different concentrations of UV standard solution and solubility test samples were injected successively. Each sample was injected 2 times, and the concentration was taken into the standard curve, and the average value was calculated.

[1] = tested on: Mycobacterium tuberculosis H37Rv strain; assay: In vitro MIC against M. tuberculosis H37Rv strain (MABA, Alamar Blue); format: cell-based
Method: Part I: The in vitro efficacy of anti-Mycobacterium tuberculosis compounds was tested using H37Rv strain.
On the day of the test, the compound was dissolved in pure DMSO (Sigma 276855-2L) to a concentration of 10 mg/mL which was used as the mother liquor of the compound. 30 μL of DMSO was added to wells of column 2 to 11 s of the v-bottom 96-well plates (Axygen-wipp02280). 30 μL of the mother liquor of the compound was added to the well of column 2, after mixing, 30 μL was taken from the well of column 2 and added to the well of column 3, and then pipetted and mixed. The operation was taken to column 10. Column 11 was free of medicine and contained only 30 μL of DMSO. This was the “motherplate” of the compound. From column 2 to 11, the corresponding concentration of the compound was 5, 2.5, 1.25, 0.625, 0.3125, 0.156, 0.078, 0.039, 0.02, 0 mg/mL. […] A flat bottom 96-well plate (Greiner 655090) was used as a “daughterplate”. 98 μL of 7H9 (Sigma M0178) medium was added to the wells of all daughterplates. 2 μL of compound was extracted from the motherboard and added to the corresponding daughter plate. Line A and H, column 1 and 12 of the daughterplate contained only 7H9 medium.
The H37Rv strain in the glycerol cryovial was inoculated into 7H9 medium containing 0.05% Tween 80 and cultured for 4 weeks at 37° C. in a shaker with 200 rpm. The bacterial liquid was washed twice with 7H9 medium containing 0.05% Tween 80 and resuspended in the same medium. The absorbance of the bacteria liquid was adjusted to OD550=0.4-0.5 using the same medium. The bacteria liquid was sub-packed in microcentrifuge tubes and stored at −80° C. Storage time was no more than 1 month. On the day of the test, the packaged bacteria liquid would be […]. The bacteria liquid was diluted 20 times and then diluted 50 times with 7H9 medium, and a total of 1000 times dilution. The bacteria liquid would be used to inoculate on the daughterplate. 100 μL of bacterial liquid was inoculated in each well of the daughterboard, 100 μL 7H9 medium was added to column 12 and without bacteria liquid.
The test daughterplate was placed in an incubator at 37° C. and the humidity was maintained at >80%. A week later, 12.5 μL of 7H9 medium containing 20% Tween 80 and 20 μL of Alamar Blue (Invitrogen DAL1100) were added to the well of a column 1 containing bacteria and the well of a column 12 without bacteria every day, and then continue to incubate for 24 hours and observed. When the added Alamar Blue was reduced to pink in 24 hours by the bacteria liquid in the well of column 1, the 7H9 medium containing 20% Tween 80 and Alamar Blue were added to all wells on the test plate and the fluorescence values were measured after incubation for 24 hours at 37° C.

P-glycoprotein (MDR1) = assay: MDR1-MDCK cell bi-directional permeability; format: in vitro ADME; settings: dog; for Papp A→B at 2.5 h, 2 μM: A to B, HBSS pH 7.4, read-out: MDR1-MDCK Monolayer Cell Bi-directional Permeability Parameters A to B; for Papp B→A at 2.5 h, 2 μM: B to A, HBSS pH 7.4, read-out: MDR1-MDCK Monolayer Cell Bi-directional Permeability Parameters B to A; for efflux ratio at 2.5 h, 2 μM: HBSS pH 7.4, read-out: MDR1-MDCK Monolayer Cell Bi-directional Permeability Parameters Efflux Ratio
Source text: 2. MDR1-MDCK cell bi-directional permeability evaluation experiment: MDR1-MDCK cells that permanently express human P-glycoprotein (P-glycoprotein) were planted on 96-well Insert cell plates and cultured for 4 to 7 days to form aggregated monolayer cells. The assessment of unidirectional (A→B) permeability of the fenoterol (low permeability marker) and propranolol (high permeability marker) and the bi-directional permeability of Digoxin (a P-glycoprotein substrate) were used to verify the quality of monolayer cells. The three control compounds do two complex wells.
The standard conditions for the transport experiments of the test compound were as follows: • Test concentration: 2 μM (DMSO≤1%); • Repetition: n=3; • Direction: bidirectional transport consisting of two directions: A→B and B→A; • Incubation time: single time point, 2.5 hours; • Transport buffer: HB SS, pH 7.4; • Incubation conditions: 37° C., 5% CO2, 95% relative humidity.
After the incubation, the sample solutions taken from the donor wells and the receive wells were immediately mixed with a cold acetonitrile solution containing the internal standard. And the amount of accumulation of intracellular compounds was measured by lysing the cells with a cold acetonitrile solution containing the internal standard. The concentrations of the test compound in all samples (including the initial administration solution, the supernatant of donor wells, the receiver solution, the cell lysate) were analyzed by the LC/MS/MS method. The concentration of the test compound was expressed by the ratio of its peak area to the internal standard peak area.

[2] = tested on: Mycobacterium bovis BCG strain TMC1019 (ATCC35737); assay: microbe, parasite or virus in culture; format: cell-based; settings: Mycobacterium tuberculosis variant bovis BCG, 24 h, read-out: M. bovis ATCC35737 (ug/mL)
Vero Cell = assay: Vero cell cytotoxicity; format: cell-based; settings: Chlorocebus sabaeus, Vero cells
M. tuberculosis H37R = assay: M. tuberculosis LORA MIC; format: cell-based; settings: Mycobacterium tuberculosis, read-out: M. tuberculosis H37R LORA (MIC) (ug/mL)
[3] = Pharmacokinetics in vivo in mice; settings: CD-1 male mice; for Pulmonary Drug Concentration (nM/Kg) PO 1 (h): lung, 1 h after administration; for Cmax: mouse, plasma
Method: The pharmacokinetic characteristics of rodents after intravenous and oral administration of the compound were tested in a standard protocol. Specifically, the candidate compounds of the experiment were injected intravenously and administered orally for 7 to 10 weeks old CD-1 male mice. The oral preparation was a 0.5% suspension of methylcellulose, and the intravenous preparation was a clear solution of ethanol/DMSO/polyethylene glycol 400/pure water (10:10:50:30). Plasma and lung samples were collected and analyzed by the LC-MS/MS method and the pharmacokinetic parameters were calculated.

Row | SMILES | solubility kinetic at 24 h (Kinetic solubility test) [µM] | MIC [1] [µg/mL] | Papp A→B at 2.5 h, 2 μM (P-glycoprotein (MDR1)) [×10⁻⁶ cm/s] | Papp B→A at 2.5 h, 2 μM (P-glycoprotein (MDR1)) [×10⁻⁶ cm/s] | efflux ratio at 2.5 h, 2 μM (P-glycoprotein (MDR1)) | MIC [2] [µg/mL] | IC50 (Vero Cell) [µg/mL] | MIC (M. tuberculosis H37R) [µg/mL] | Pulmonary Drug Concentration (nM/Kg) PO 1 (h) [3] [nM/kg] | Cmax ([3]; oral) [nM] | drug concentration in lung relative to the reference compound (OPC-67683) ([3]; oral, 1 hour after administration)
1 | C[C@]1(CN2Cc3nc(-c4ccc(F)cc4)sc3C2)Cn2cc([N+](=O)[O-])nc2O1 [Compound 69, (S)-2-((2-(4-Fluorophenyl)-4H-pyrrolo[3,4-d]thiazol-5(6H)-yl)methyl)-2-methyl-6-nitro-2,3-dihydroimidazo[2,1-b]oxazole] | 39.3 (≈ 15.8 µg/mL) | < 1 | 20.9 | 15.8 | 0.76 | < 1 | > 32 | 1 to 32 (≈ 2.49 to 79.7 µM) | – | – | –
2 | C[C@]1(COc2ccc(N3CCC(Oc4ccc(OC(F)(F)F)cc4)CC3)cc2)Cn2cc([N+](=O)[O-])nc2O1 [OPC-67683, delamanid, reference compound] | – | – | 0.09 | 0.17 | – | – | – | – | 1677 | 4740 | –
3 | C[C@]1(CN2Cc3nc(-c4ccc(F)cc4)oc3C2)Cn2cc([N+](=O)[O-])nc2O1 [Compound 89, (S)-2-(4-Fluorophenyl)-5-((2-methyl-6-nitro-2,3-dihydroimidazo[2,1-b]oxazol-2-yl)methyl)-5,6-dihydro-4H-pyrrolo[3,4-d]oxazole] | 100 (≈ 38.7 µg/mL) | < 1 | 25.9 | 18.5 | 0.71 | < 1 | > 32 | – | – | – | –
4 | CC1(CN2CCc3nc(-c4ccccc4)ccc3C2)Cn2cc([N+](=O)[O-])nc2O1 (single isomer, unassigned) [Compound 1B, 2-methyl-6-nitro-2-((2-phenyl-7,8-dihydro-1,6-naphthyridin-6(5H)-yl)methyl)-2,3-dihydroimidazo[2,1-b]oxazole] | 130 (≈ 50.7 µg/mL) | < 1 | 16.8 | 22.7 | 1.35 | < 1 | > 32 | 1 to 32 (≈ 2.55 to 81.8 µM) | – | – | –
5 | C[C@]1(CN2CCc3nc(-c4ccc(F)cc4)ccc3C2)Cn2cc([N+](=O)[O-])nc2O1 [Compound 7, (S)-2-((2-(4-Fluorophenyl)-7,8-dihydro-1,6-naphthyridin-6(5H)-yl)methyl)-2-methyl-6-nitro-2,3-dihydroimidazo[2,1-b]oxazole] | 143 (≈ 58.7 µg/mL) | < 1 | 17.7 | 19.3 | 1.09 | < 1 | > 32 | 1 to 32 (≈ 2.44 to 78.2 µM) | 16147 | 6720 | more than 9 times

From US10227362B2 (priority 2015, dated 2019)
